Target: T1, GST-human KRas166 (G12V) GPPNHP (Homo sapiens, UniProt P01116, G12V)
T1 construct: made in house; host or cells: E. coli C41(DE3)
Test: KRas small-molecule screening by SPR (BIACORE T200)
Format: binding
Conditions: compound at final concentration of 100 uM; immobilised GST-KRAS166 (G12V) GPPNHP, GST reference channel
Protocol: For SPR assays pGEX-KRAS(G12V) plasmid was transformed into E. coli C41(DE3). Bacterial cells were cultured at 37° C. to an OD600 of 0.6 and induced with IPTG (final 0.1 mM) at 18° C. overnight. The GST fusion proteins were extracted from bacteria pellets after cell disruption in 140 mM NaCl, 2.7 mM KCl, […], 1.8 mM KH2PO4, 1 mM EDTA, 2 mM MgCl2 pH 7.4 and purified by glutathione-sepharose column chromatography (GE Healthcare), eluting with 50 mM Tris-HCl pH8.0, 10 mM reduced glutathione, 1 mM DTT, 2 mM MgC2. The eluted proteins were dialysed against 50 mM Tris-HCl pH8.0, 1 mM DTT, 2 mM MgCl2 and concentrated to 10 mg/ml using a Biomax-30 […]-15 centrifugal filter device (Millipore). Purified KRAS protein was loaded with GPPNHP as described elsewhere (Pacold et al., 2000). Loaded protein was then purified by gel filtration on a HiLoad Superdex-75 HR column (GE Healthcare) in 1×PBS pH7.4, 5 mM MgCl2 and concentrated for storage.
To a previously immobilized CM5 chip (GE Healthcare BR-1005-30) with anti GST antibody via amine coupling method, GST in channel 1 and GST-human KRas166 (G12V) GPPNHP in channel 2 were immobilised. GST was immobilised between 2,000 and 5,000 Response units. KRAS166 (G12V) was immobilized between 10,000 to 15,000 Response Units.
In a 96 well plate, compounds were diluted in […], 5 mM MgCl2 and 5% DMSO Buffer to a final concentration of 100 uM. DCAI was used as positive control. Experiment also included a solvent correction curve for 5% DMSO. Screening and evaluation of the protein immobilization and the compounds screening was done accordingly to the BIACORE T200 control and evaluation software.
Protein immobilisation: 10,000 RU; average fragment 300 Da in size. Rmax=(MWA/MWL)×RL×SM MWA is the molecular weight of the analyte in Da MWL is the molecular weight of the ligand in Da RL is the immobilization level in RU SM is the molar stoichiometry (assume 1:1) Rmax=300/47,500×10,000×1 Rmax=63 RU. Cell Viability Assay protocols

| Compound | SPR Response Units [Response Units] |
| --- | --- |
| CN1CCN(Cc2ccc(C(=O)NC[C@@H]3COc4ccc(OCc5cncc(Cl)c5)cc4O3)o2)CC1 [Example 25, 5-(4-Methyl-piperazin-1-ylmethyl)-furan-2-carboxylic acid [(R)-7-(5-chloro-pyridin-3-ylmethoxy)-2,3-dihydro-benzo[1,4]dioxin-2-ylmethyl]-amide] | 45 |
| O=C(CC1CCNCC1)NC[C@@H]1COc2ccc(OCc3ccccc3)cc2O1 [Example 16, N-((R)-7-Benzyloxy-2,3-dihydro-benzo[1,4]dioxin-2-ylmethyl)-2-piperidin-4-yl-acetamide] | 25 |
| O=C(NCc1ccnc(F)c1)C1COc2ccc(OCc3ccccc3)cc2O1 (stereo not drawn) [Example 72, 7-Benzyloxy-2,3-dihydro-benzo[1,4]dioxine-2-carboxylic acid (2-fluoro-pyridin-4-ylmethyl)-amide] | 12 |
| O=C(NCc1cccc(CN2CCOCC2)c1)C1COc2ccc(OCc3ccccc3)cc2O1 (stereo not drawn) [Example 66, 7-Benzyloxy-2,3-dihydro-benzo[1,4]dioxine-2-carboxylic acid 3-morpholin-4-ylmethyl-benzylamide] | 53 |
| CN1CCN(C(=O)NC[C@@H]2COc3ccc(OCc4ccccc4)cc3O2)CC1 [Example 82, 4-methyl-piperazine-1-carboxylic acid ((R)-7-benzyloxy-2,3-dihydro-benzo[1,4]dioxin-2-ylmethyl)-amide] | 63 |
| O=C1CN(c2ccccn2)C(=O)N1C[C@@H]1COc2ccc(OCc3ccccc3)cc2O1.O=CO [Example 78, 3-((R)-7-Benzyloxy-2,3-dihydro-benzo[1,4]dioxin-2-ylmethyl)-1-pyridin-2-yl-imidazolidine-2,4-dione] | 28 |
| O=C(NC[C@@H]1COc2ccc(OCc3ccccc3)cc2O1)C1CCOCC1 [Example 5, Tetrahydro-pyran-4-carboxylic acid ((R)-7-benzyloxy-2,3-dihydro-benzo[1,4]dioxin-2-ylmethyl)-amide] | 25 |
| CN1CCC(N(C)C(=O)NC[C@@H]2COc3ccc(OCc4ccccc4)cc3O2)CC1 [Example 81, 3-(7-Benzyloxy-2,3-dihydro-benzo[1,4]dioxin-2-ylmethyl)-1-methyl-1-(1-methyl-piperidin-4-yl)-urea] | 75 |
| CN1CCC(CC(=O)NC[C@@H]2COc3ccc(OCc4ccccc4)cc3O2)CC1 [Example 8, N-((R)-7-Benzyloxy-2,3-dihydro-benzo[1,4]dioxin-2-ylmethyl)-2-(1-methyl-piperidin-4-yl)-acetamide] | 24 |
| O=C(NCc1ccc(CN2CCOCC2)cc1)C1COc2ccc(OCc3ccccc3)cc2O1 (stereo not drawn) [Example 65, 7-Benzyloxy-2,3-dihydro-benzo[1,4]dioxine-2-carboxylic acid 4-morpholin-4-ylmethyl-benzylamide] | 46 |
| O=C(NC[C@@H]1COc2ccc(OCc3cn[nH]c3)cc2O1)c1ncco1 [Example 20, Oxazole-2-carboxylic acid [(R)-7-(1H-pyrazol-4-ylmethoxy)-2,3-dihydro-benzo[1,4]dioxin-2-ylmethyl]-amide] | 40 |
| O=C(NC[C@@H]1COc2ccc(OCc3cccnc3)cc2O1)c1ncco1 [Example 19, Oxazole-2-carboxylic acid [(R)-7-(pyridin-3-ylmethoxy)-2,3-dihydro-benzo[1,4]dioxin-2-ylmethyl]-amide] | 40 |
| O=C1CC(CNC(=O)C2COc3ccc(OCc4ccccc4)cc3O2)CCN1 (stereo not drawn) [Example 71, 7-Benzyloxy-2,3-dihydro-benzo[1,4]dioxine-2-carboxylic acid (2-oxo-piperidin-4-ylmethyl)-amide] | 7 |
| CNC(=O)C(NC[C@@H]1COc2ccc(OCc3ccccc3)cc2O1)c1ccccc1 (stereo partly drawn) [Example 49, 2-[((R)-7-Benzyloxy-2,3-dihydro-benzo[1,4]dioxin-2-ylmethyl)-amino]-N-methyl-2-phenyl-acetamide] | 67 |
| O=C(NC[C@@H]1COc2ccc(OCc3ccccc3)cc2O1)C1CCN(Cc2ccco2)CC1 [Example 15, 1-Furan-2-ylmethyl-piperidine-4-carboxylic acid ((R)-7-benzyloxy-2,3-dihydro-benzo[1,4]dioxin-2-ylmethyl)-amide] | 33 |
| CC(=O)N1CCC(NC[C@@H]2COc3ccc(OCc4ccccc4)cc3O2)CC1 [Example 34, 1-{4-[((R)-7-Benzyloxy-2,3-dihydro-benzo[1,4]dioxin-2-ylmethyl)-amino]-piperidin-1-yl}-ethanone] | 23 |
| O=C(NCC1COCCN1)C1COc2ccc(OCc3ccccc3)cc2O1 (stereo not drawn) [Example 76, 7-Benzyloxy-2,3-dihydro-benzo[1,4]dioxine-2-carboxylic acid (morpholin-3-ylmethyl)-amide] | 48 |
| NC[C@@H]1COc2ccc(OCc3ccccc3)cc2O1 [Example 86, C—((R)-7-Benzyloxy-2,3-dihydro-benzo[1,4]dioxin-2-yl)-methylamine] | 28 |
| c1ccc(COc2ccc3c(c2)O[C@H](CNCC2COCCN2)CO3)cc1 (stereo partly drawn) [Example 57, ((R)-7-Benzyloxy-2,3-dihydro-benzo[1,4]dioxin-2-ylmethyl)-morpholin-3-ylmethyl-amine] | 29 |
| O=C(NC[C@@H]1COc2ccc(OCc3ccccc3)cc2O1)C1CCNCC1 [Example 17, Piperidine-4-carboxylic acid ((R)-7-benzyloxy-2,3-dihydro-benzo[1,4]dioxin-2-ylmethyl)-amide] | 22 |
| O=C(Cc1cccnc1)NC[C@@H]1COc2ccc(OCc3ccccc3)cc2O1 [Example 11, N-((R)-7-Benzyloxy-2,3-dihydro-benzo[1,4]dioxin-2-ylmethyl)-2-pyridin-3-yl-acetamide] | 68 |
| CN1CCC(COc2ccc3c(c2)O[C@H](CNC(=O)c2ncco2)CO3)CC1 [Example 21, Oxazole-2-carboxylic acid [(R)-7-(1-methyl-piperidin-4-ylmethoxy)-2,3-dihydro-benzo[1,4]dioxin-2-ylmethyl]-amide] | 9 |
| CN1CCN(Cc2ccc(C(=O)NC[C@@H]3COc4ccc(OCc5ccc(Cl)cn5)cc4O3)o2)CC1 [Example 26, 5-(4-Methyl-piperazin-1-ylmethyl)-furan-2-carboxylic acid [(R)-7-(5-chloro-pyridin-2-ylmethoxy)-2,3-dihydro-benzo[1,4]dioxin-2-ylmethyl]-amide] | 48 |
| N[C@H]1CC[C@@H](NC(=O)C2COc3ccc(OCc4ccccc4)cc3O2)CC1 (stereo partly drawn) [Example 75, 7-Benzyloxy-2,3-dihydro-benzo[1,4]dioxine-2-carboxylic acid (4-amino-cyclohexyl)-amide] | 51 |
| CN1CCC(NC(=O)NC[C@@H]2COc3ccc(OCc4ccccc4)cc3O2)CC1 [Example 80, 1-(7-benzyloxy-2,3-dihydro-benzo[1,4]dioxin-2-ylmethyl)-3-(1-methyl-piperidin-4-yl)-urea] | 93 |
| O=C(NCc1ccncc1)C1COc2ccc(OCc3ccccc3)cc2O1 (stereo not drawn) [Example 68, 7-Benzyloxy-2,3-dihydro-benzo[1,4]dioxine-2-carboxylic acid (pyridin-4-ylmethyl)-amide] | 57 |
| O=C(C1COc2ccc(OCc3ccccc3)cc2O1)N1CCN(Cc2ccncc2)CC1 (stereo not drawn) [Example 63, (7-Benzyloxy-2,3-dihydro-benzo[1,4]dioxin-2-yl)-(4-pyridin-4-ylmethyl-piperazin-1-yl)-methanone] | 79 |
| CN(C)CCC(=O)NC[C@@H]1COc2ccc(OCc3ccccc3)cc2O1 [Example 6, N-((R)-7-Benzyloxy-2,3-dihydro-benzo[1,4]dioxin-2-ylmethyl)-3-dimethylamino-propionamide] | 21 |
| c1ccc(COc2ccc3c(c2)O[C@H](CNC2CCc4ccccc42)CO3)cc1 (stereo partly drawn) [Example 48, ((R)-7-Benzyloxy-2,3-dihydro-benzo[1,4]dioxin-2-ylmethyl)-indan-1-yl-amine] | 24 |
| O=C(NCc1cccnc1)C1COc2ccc(OCc3ccccc3)cc2O1 (stereo not drawn) [Example 67, 7-Benzyloxy-2,3-dihydro-benzo[1,4]dioxine-2-carboxylic acid (pyridin-3-ylmethyl)-amide] | 49 |
